Laboratory results as given in patent US7488754B2, “Method for the treatment of polycystic kidney disease” (Wyeth, priority 2002, dated 2009).
Marks after values point to notes of the source that are not given here.

Columns and labels:
TACE = TACE (Homo sapiens, UniProt P78536); assay: TACE activity (IC 50); type: biochemical
noncystic littermates = assay: Treatment of noncystic (phenotypically normal) littermates of bpk mice; type: in vivo; conditions: P-21 noncystic mice
Method: (§1) Cystic bpk mice and phenotypically normal littermates were injected with a dose of 100 mg/kg/dose of 1-acetyl-4-(4-but-2-ynyloxy-benzenesulfonyl)-2,3,4,5-tetrahydro-1 h-[1,4]benzodiazepine-3-carboxylic acid hydroxyamide given intraperitoneally once daily, in a vehicle containing 0.5% methocellulose (Fluka Biochemica, Ronkonkoma, N.Y.) and 2% Tween 80 (J T Baker, Phillipsburg, N.J.), beginning at postnatal day 7. Age-matched untreated cystic bpk mice and their noncystic littermates served as controls. At day 21, mice were sacrificed. Blood was obtained by orbital puncture prior to sacrifice. Kidney weight and body weight for treated and untreated cystic and noncystic mice were measured at sacrifice. Blood urea nitrogen (BUN) was assessed using a calorimetric assay. Serum creatinine was assessed using standard techniques in the hospital laboratory. Differences in clinical and laboratory parameters between treated and untreated cystic and noncystic mice were analyzed by two-tailed Student's t-test.

MMP-13 = MMP-13 (Homo sapiens, UniProt P45452); assay: MMP activity (IC 50), MMP-13; type: biochemical
cystic bpk mice [1] = assay: Treatment of cystic bpk mice (bpk model of ARPKD); type: in vivo
Source text: This model arose from a spontaneous mutation in a colony of BALB/C mice. Affected animals have many similarities to the human disease including collecting tubule (CT) cysts and biliary ectasia and fibrosis. The kidney disease has a consistent and severe phenotype. Mice homozygous for the bpk mutation have microscopic evidence of cyst formation at birth. Proximal tubule (PT) cysts are present at birth, which are gradually replaced by CT cysts as the disease progresses. Cyst expansion and kidney fibrosis result in death due to renal failure at 24-28 days. Heterozygotes show no phenotypic abnormalities and are identified by their ability to breed affected offspring. Unaffected (noncystic) littermates of cystic bpk mice are either wild-type or heterozygous at the bpk locus.
as §1
Kidneys were fixed in 4% paraformaldehyde and embedded in plastic. Segment-specific localization of cysts was assessed using lectins specific to proximal tubule (Lotus tetragonolobus, LTA), and collecting tubule (Dolichos biflorus agglutinin, DBA). Serial LTA and DBA stained sections were examined by light microscopy and assessed for severity of cystic dilatations in PTs and CTs, expressed on a scale of 0 to 5 using a modified cystic index: • 0=No cysts • 1=≦0.11 mm • 2=0.12-0.19 mm • 3=0.20-0.27 mm • 4=0.28-0.35 mm • 5=≧0.36 mm The total number of CT (DBA+/LTA−) cysts and PT (LTA+/DBA−) cysts within a section were counted and expressed as a ratio.
Mice were treated from day 7 of life until day 21, then sacrificed. […] The results are listed below in Tables 1, 2, and 3.

MMP-1 = target: T1, MMP-1 (Homo sapiens, UniProt P03956); assay: MMP activity (IC 50), MMP-1; type: biochemical
T1 sequence (P03956 100-469): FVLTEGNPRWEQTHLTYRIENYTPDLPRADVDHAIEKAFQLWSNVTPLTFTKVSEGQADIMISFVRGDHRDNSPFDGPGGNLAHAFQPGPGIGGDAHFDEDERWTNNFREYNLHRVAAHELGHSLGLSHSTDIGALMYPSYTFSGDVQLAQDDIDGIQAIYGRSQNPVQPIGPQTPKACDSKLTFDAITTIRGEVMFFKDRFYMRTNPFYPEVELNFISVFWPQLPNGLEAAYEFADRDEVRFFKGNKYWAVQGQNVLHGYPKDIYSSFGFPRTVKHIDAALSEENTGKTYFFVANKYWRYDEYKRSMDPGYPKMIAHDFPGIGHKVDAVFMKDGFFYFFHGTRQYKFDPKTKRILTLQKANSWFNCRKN

MMP-9 = MMP-9 (Homo sapiens, UniProt P14780); assay: MMP activity (IC 50), MMP-9; type: biochemical
Sequence of MMP-9 (P14780 94-707): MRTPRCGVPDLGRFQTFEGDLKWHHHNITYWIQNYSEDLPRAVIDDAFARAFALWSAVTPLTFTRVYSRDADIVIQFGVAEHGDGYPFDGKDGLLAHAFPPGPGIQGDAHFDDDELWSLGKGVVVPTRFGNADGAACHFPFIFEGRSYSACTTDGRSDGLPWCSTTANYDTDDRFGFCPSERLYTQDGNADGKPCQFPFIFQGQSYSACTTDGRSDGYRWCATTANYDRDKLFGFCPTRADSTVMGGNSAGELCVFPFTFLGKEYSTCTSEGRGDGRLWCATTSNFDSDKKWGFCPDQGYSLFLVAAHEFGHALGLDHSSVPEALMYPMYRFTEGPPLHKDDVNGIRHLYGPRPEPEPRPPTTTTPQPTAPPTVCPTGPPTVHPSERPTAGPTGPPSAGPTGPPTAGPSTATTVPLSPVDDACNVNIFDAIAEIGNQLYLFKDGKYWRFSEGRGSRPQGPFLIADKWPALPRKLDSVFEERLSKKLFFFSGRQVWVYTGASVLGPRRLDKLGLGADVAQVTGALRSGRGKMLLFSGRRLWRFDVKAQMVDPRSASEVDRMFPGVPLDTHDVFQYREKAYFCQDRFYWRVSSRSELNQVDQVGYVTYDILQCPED

cystic bpk mice [2] = assay: Treatment of cystic bpk mice (bpk model of ARPKD); type: in vivo; conditions: B 50 mg/kg/day once daily IP day 7 to 21
[3] = 100 mg/kg/dose intraperitoneally once daily from postnatal day 7, sacrifice day 21
[4] = P-21 cystic bpk mice, 100 mg/kg/dose intraperitoneally once daily from postnatal day 7, sacrifice day 21

Sequence of TACE (P78536 215-824): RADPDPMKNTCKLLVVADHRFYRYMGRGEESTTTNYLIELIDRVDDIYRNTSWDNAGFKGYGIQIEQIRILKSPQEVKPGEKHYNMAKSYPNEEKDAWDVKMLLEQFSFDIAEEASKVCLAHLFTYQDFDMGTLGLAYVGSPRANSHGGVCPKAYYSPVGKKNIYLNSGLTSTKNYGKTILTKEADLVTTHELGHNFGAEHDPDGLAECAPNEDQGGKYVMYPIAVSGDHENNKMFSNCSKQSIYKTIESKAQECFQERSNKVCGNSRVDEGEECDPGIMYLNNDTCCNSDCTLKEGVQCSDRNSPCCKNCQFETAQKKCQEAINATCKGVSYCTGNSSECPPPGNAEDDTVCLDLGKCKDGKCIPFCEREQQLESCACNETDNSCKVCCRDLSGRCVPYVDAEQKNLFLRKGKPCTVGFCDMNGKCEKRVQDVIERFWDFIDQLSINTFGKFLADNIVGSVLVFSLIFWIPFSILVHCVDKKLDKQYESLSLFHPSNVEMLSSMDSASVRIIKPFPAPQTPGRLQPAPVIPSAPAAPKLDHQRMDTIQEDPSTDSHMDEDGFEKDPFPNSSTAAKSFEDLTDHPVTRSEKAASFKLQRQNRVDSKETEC

Compound: CC#CCOc1ccc(S(=O)(=O)N2Cc3ccccc3N(C(C)=O)CC2C(=O)NO)cc1 (stereo not drawn) [A, 1-Acetyl-4-(4-But-2-ynyloxy-Benzenesulfonyl)-2,3,4,5-Tetrahydro-1H-[1,4]Benzodiazepine-3-Carboxylic Acid Hydroxyamide]
- IC50 (TACE): 8.4 nM
- BUN (noncystic littermates; 100 mg/kg/dose intraperitoneally once daily from postnatal day 7, blood at day 21): 17 +/− 4^d mg/dl
- Body Weight (noncystic littermates; [3]): 8.5 +/− 1.0 grams
- Kidney Weight (noncystic littermates; [3]): 0.13 +/− 0.01 grams
- Kidney Weight to Body Weight (noncystic littermates; [3]): 1.5 +/− 0.1%
- Creatinine (noncystic littermates; serum, 100 mg/kg/dose intraperitoneally once daily from postnatal day 7, blood at day 21): 0.15 +/− 0.05^e mg/dl
- IC50 (MMP-13): 3 nM
- BUN (cystic bpk mice [1]; P-21 cystic bpk mice, 100 mg/kg/dose intraperitoneally once daily from postnatal day 7, blood at day 21): 33 +/− 4^b** mg/dl
- Body Weight (cystic bpk mice [1]; [4]): 8.2 +/− 1.3 grams
- Kidney Weight (cystic bpk mice [1]; [4]): 0.93 +/− 0.2** grams
- Kidney Weight to Body Weight (cystic bpk mice [1]; [4]): 11.2 +/− 1.3** percent
- CT Cystic Index (graded 1–5) (cystic bpk mice [1]; collecting tubule cysts, DBA stained kidney sections, cystic mice, 100 mg/kg/dose IP once daily day 7 to 21): 3.2 +/− 0.4**
- CT Cyst Size Range (cystic bpk mice [1]; collecting tubule cysts, cystic mice, 100 mg/kg/dose IP once daily day 7 to 21): 0.012–0.29 mm
- Cystic Kidney Weight to Body Weight (cystic bpk mice [1]; cystic bpk mice, A 100 mg/kg/dose IP once daily day 7 to 21): 11.2 +/− 1.3%
- PT Cystic Index (graded 1–5) (cystic bpk mice [1]; proximal tubule cysts, LTA stained kidney sections, cystic mice, 100 mg/kg/dose IP once daily day 7 to 21): 1.8 +/− 0.4
- PT Cyst Size Range (cystic bpk mice [1]; proximal tubule cysts, cystic mice, 100 mg/kg/dose IP once daily day 7 to 21): 0.012–0.17 mm
- Creatinine (cystic bpk mice [1]; serum, P-21 cystic bpk mice, 100 mg/kg/dose intraperitoneally once daily from postnatal day 7, blood at day 21): 0.18 +/− 0.05^b mg/dl
- Cystic CT/PT Ratio (cystic bpk mice [1]; total number of CT cysts to PT cysts within a section, cystic mice, 100 mg/kg/dose IP once daily day 7 to 21): 1.2**
- IC50 (MMP-1): 6.6 nM
- IC50 (MMP-9): 12 nM

Compound: O=C(NO)C1(S(=O)(=O)c2ccc(Oc3ccc(Cl)cc3)cc2)CCN(Cc2ccccc2)CC1 [B, 1-Benzyl-4-[4-(4-chloro-phenoxy)-benzenesulfonyl]-piperidine-4-carboxylic acid hydroxamide]
- Cystic Kidney Weight to Body Weight (cystic bpk mice [2]): 15.3 +/− 1.7%
